Experimental data: patent US20260116957A1, “PHARMACEUTICAL COMPOSITION FOR AMELIORATING ACUTE LUNG INJURY AND ACUTE WORSENING OF PULMONARY FIBROSIS” (priority 2021, published 2026)
Like-named read-outs stand apart in the source and are kept apart here. Residues, ends and D or L forms follow the SMILES beside them.

Legend:
[1] = system: peptidase fraction prepared from Staphylococcus nepalensis culture supernatant (putative serine protease); format: biochemical
[2] = system: A549 alveolar epithelial cells; assay: Apoptosis assay of A549 cells (flow cytometry, annexin V / propidium iodide); format: cell-based, human; settings: for apoptotic activity compared with the parent corisin sequence: single amino acid mutants, FIG. 35; for concentration at which apoptotic activity is shown: synthetic corisin
[3] = system: mice with bleomycin-induced pulmonary fibrosis; assay: Intratracheal corisin in mice with bleomycin-induced pulmonary fibrosis; format: in vivo, mouse; settings: for CT scores after intratracheal corisin: 300 pg/mouse on day 20
Excerpt: AE-Inducing Action of Corisin in Bleomycin-Induced Pulmonary Fibrosis Bleomycin (BLM)-induced pulmonary fibrosis in mice or rats is the most characterized and commonly used preclinical model for IPF studies (Reference Literature 28). It is unclear whether corisin exacerbates disease in BLM-induced pulmonary fibrosis. To address this question, an experimental model was developed in wild-type (WT) mice by infusing BLM via osmotic minipumps and administering corisin via intratracheal instillation (FIG. 21a). Bleomycin (BLM) or physiological saline (SAL) was infused from osmotic minipumps implanted subcutaneously in the backs of mice according to the experiment schedule for inducing acute exacerbation in mice with bleomycin-induced pulmonary fibrosis shown in FIG. 21a. Computed tomography (CT) scans were performed before and after intratracheal administration of corisin or a scrambled peptide before mouse euthanasia. Mice administered SAL via osmotic minipumps and intratracheal corisin or a scrambled peptide were used as a control. Mice were euthanized 22 days after BLM or SAL pump implantation.
After confirming pulmonary fibrosis onset by chest CT, autologous CT score criteria (FIG. 21b) were used to assign mice into two groups with concordant CT scores.
Wild-type (WT) mice were administered bleomycin (BLM) by osmotic minipump on day 0 and intratracheally instilled (75 μL) with corisin or a scrambled peptide (300 pg/mouse) on day 20 post-pump implantation. CTs were performed as described in Example 2. […] Next, wild-type (WT) mice were administered physiological saline (SAL) by osmotic minipump on day 0 and intratracheally instilled (75 μL) with corisin or a scrambled peptide (300 pg/mouse) on day 20 post-pump implantation.
Next, inflammatory cells and the like in mice with BLM-induced pulmonary fibrosis which had been administered intratracheal corisin were examined. Wild-type (WT) mice were administered bleomycin (BLM) or physiological saline (SAL) by osmotic minipump on day 0 and intratracheally instilled (75 μL) with corisin or a scrambled peptide ([…]) on day 20 post-pump implantation. BALF total cell counts were determined using a NucleoCounter and cell fraction counts were conducted after Giemsa staining using WindRoof image software. Levels of serum amyloid P component (SAP), MUC-1, monocyte chemoattractant protein-1 (MCP-1), periostin, collagen I, and osteopontin were measured by enzyme immunoassay according to the manufacturer's instructions.
Next, caspase-3 cleavage was evaluated by Western blotting and quantified. […] Collagen deposition was evaluated using Masson's trichrome staining and quantified using WindRoof imaging software. Pulmonary tissue content of hydroxyproline was measured by colorimetric analysis using a commercially available kit in accordance with the manufacturer's instructions. […] These findings indicate that corisin also exacerbates disease in BLM-induced pulmonary fibrosis.

[4] = Half-life of corisin in A549 cell culture medium; settings: A549 alveolar epithelial cell culture (cell supernatant), human alveolar (A549) cell culture system, read-out: half-life in the solution
Method: In order to ascertain how quickly corisin is metabolized in a cell culture system, the half-life of corisin was investigated. A549 alveolar epithelial cells were cultured in DMEM to which 10% fetal bovine serum had been added until confluent. Next, corisin was inoculated into a cell culture medium at a final concentration of 10 micrograms/mL, and cell supernatant was collected after 0, 1, 3, 6, 12, and 24 hours. The concentration of corisin was measured by an enzyme immunoassay method, and the half-life of corisin was examined. […] Therefore, serum corisin measurements should be performed immediately after the onset of acute exacerbation.

[5] = system: mice having established pulmonary fibrosis; settings: cited from earlier work
[6] = system: A549 alveolar epithelial cells; assay: RT-PCR of mRNA expression of pro-apoptotic and anti-apoptotic factors; format: cell-based, human; settings: 50 μM corisin, 24 hours, vs scrambled peptides
Method: Next, the effect of corisin on mRNA expression of markers for pro-apoptotic factors such as Bax and anti-apoptotic factors BIRC1, BIRC5, BIRC7, Bcl2, BclXL, cyclin D1, proliferating cell nuclear antigens, and proliferating Ki-67 were examined. A549 alveolar epithelial cells were cultured in the presence of 50 μM corisin for 24 hours, total mRNA was extracted, and cDNA was prepared and amplified by RT-PCR.

[7] = system: TGFβ1 TG mice with pulmonary fibrosis; assay: Corisin-induced acute exacerbation of pulmonary fibrosis in TGFβ1 TG mice; format: in vivo, mouse; settings: TGFβ1 TG mice with fibrosis treated with isotype antibody
Method: Next, TGFβ1 TG mice with pulmonary fibrosis were then assigned to two groups having corresponding computed tomography (CT) scan scores (FIG. 18a, b). CT examinations were performed as follows.
Lung CT was performed using a LaTheta LCT-200 micro CT purchased from Hitachi Aloka Medical (Tokyo, Japan). Mice were anesthetized by inhalation of isoflurane and then placed in the prone position to collect data (Non-Patent Literature 19, Reference Literature 61). Seven to nine specialists in pulmonary radiology, blinded to treatment groups, scored the CT findings on the TGFβ1 TG mice with pulmonary fibrosis based on previously reported and validated criteria as follows. Score 1, Normal lung findings; score 2, interim findings; score 3, mild pulmonary fibrosis; score 4, interim findings; score 5, moderate pulmonary fibrosis; score 6, interim findings; and score 7, progressive pulmonary fibrosis (Non-Patent Literature 19). The same criteria were used to score pulmonary inflammation and fibrosis in a BLM-induced pulmonary fibrosis mouse model (FIG. 21b).
A group of fibrosis-free TGFβ1 TG mice administered intratracheal corisin served as a control (FIG. 18a, b). […]

[8] = system: Caki-2, HaCaT, ARPE-19, Caco-2, HIEC-6 and ihPOD cells; assay: Caspase-3 cleavage by Western blotting in further epithelial cell lines; format: cell-based, human; settings: 10 μg/mL peptide, 24 hours, all cell lines, vs scrambled peptide
Excerpt: Caki-2 cell line derived from proximal tubular epithelium, HaCaT keratinocyte cell line derived from adult skin, ARPE-19 retinal pigment epithelial cell line, Caco-2 cell line derived from colon cancer, and HIEC-6 cell line derived from normal human small intestinal epithelial cells were obtained from the American Type Culture Collection (American Type Culture Collection; Manassas, VA). RPMI 1640 culture medium was purchased from Sigma-Aldrich (St. Louis, Missouri) and fetal bovine serum (FBS) was purchased from Bio Whittaker (Bio Whittaker; Walkersville, Maryland). L-glutamine, penicillin, and streptomycin were obtained from Invitrogen (Carlsbad, California). Caki-2 cells, Caco-2 cells, and ihPOD cells were cultured in RPMI 1640 culture medium, HaCaT cells in DMEM culture medium, ARPE-19 cells in DMEM/F12 culture medium, and HIEC-6 cells in DMEM culture medium.
Each cell line was cultured until subconfluent to examine caspase-3 cleavage by Western blotting. […] Cells were stimulated with 10 μg/mL of a scrambled peptide, corisin, or corisin-like peptide, cultured for 24 hours, and then Western blotting was performed.

[9] = BLM mice, 300 μg/mouse intratracheal, vs scrambled peptide
[10] = BLM mice, corisin vs scrambled peptide

Molecule: O=C(O)CN(CCN(CC(=O)O)CC(=O)O)CC(=O)O [EDTA, ethylenediaminetetraacetic acid]
- suppression of transglycosylase degradation [1]: neither E-64 nor EDTA suppressed transglycosylase degradation

Molecule: IVMPESSGNPNAVSPAGYR [corisin N14S]
- apoptotic activity compared with the parent corisin sequence [2]: devoid of apoptotic activity

Molecule: IVMPESSGNPNAVNAAGYR [corisin P15A]
- apoptotic activity compared with the parent corisin sequence [2]: devoid of apoptotic activity

Molecule: Cl.NCCc1ccc(S(=O)(=O)F)cc1 [Pefabloc SC]
- suppression of transglycosylase degradation ([1]; 0.1, 0.3, 1 mM, 37° C. for 0.5, 1 and 2 hours): suppress transglycosylase degradation

Molecule: CC[C@H](C)[C@H](N)C(=O)N[C@H](C(=O)N[C@@H](CCSC)C(=O)N1CCC[C@H]1C(=O)N[C@@H](CCC(=O)O)C(=O)N[C@@H](CO)C(=O)N[C@@H](CO)C(=O)NCC(=O)N[C@@H](CC(N)=O)C(=O)N1CCC[C@H]1C(=O)N[C@@H](CC(N)=O)C(=O)N[C@@H](C)C(=O)N[C@H](C(=O)N[C@@H](CC(N)=O)C(=O)N1CCC[C@H]1C(=O)N[C@@H](C)C(=O)NCC(=O)N[C@@H](Cc1ccc(O)cc1)C(=O)N[C@@H](CCCNC(=N)N)C(=O)O)C(C)C)C(C)C [corisin, IVMPESSGNPNAVNPAGYR] (H-IVMPESSGNPNAVNPAGYR-OH; N-terminus and C-terminus assumed)
- circulation level of serum amyloid P component [3, 9]: increased
- level of MUC-1 [3, 9]: increased
- level of collagen I [3, 9]: increased
- level of monocyte chemoattractant protein-1 (MCP-1) [3, 9]: increased
- level of osteopontin [3, 9]: increased
- level of periostin [3, 9]: increased
- total number of lymphocytes in BALF [3, 9]: increased significantly
- collagen deposition in the lungs [3, 10]: increased
- hydroxyproline content in the lungs [3, 10]: increased
- caspase-3 cleavage (Western blotting) ([3]; BLM mice, intratracheal corisin vs scrambled peptide): significantly increased
- changes in mice administered physiological saline via osmotic minipump ([3]; SAL pump mice without fibrosis): no significant changes
- CT scores after intratracheal corisin ([3]; WT mice with BLM-induced pulmonary fibrosis): worsened significantly
- CT scores after intratracheal corisin ([3]; mice without pulmonary fibrosis (SAL pump)): did not change
- half-life at 10 micrograms/mL [4]: < 1 h
- effect of intrapulmonary administration [5]: causes apoptosis of alveolar epithelial cells and acute exacerbation (AE)
- mRNA expression of anti-apoptotic factors [6]: significantly reduced
- mRNA expression of pro-apoptotic factors such as Bax and APAF-1 [6]: significantly increased
- concentration at which apoptotic activity is shown [2]: 10 pg/mL
- concentration at which apoptotic activity is shown ([2]; A549 cells): 1e+07 pg/mL
- apoptosis-inducing activity compared to the Staphylococcus haemolyticus peptide ([2]; synthetic peptides, A549 cells, FIG. 3): slightly higher
- CT findings after intratracheal corisin [7]: significantly worse
- cleavage of caspase-3 [8]: significantly increased
